Consider nine compounds from patent publication US7659296B2, “Vitamin D receptor modulators” (Eli Lilly and Company, priority 2004, dated 2010).

Common to all, as to assay type: cell-based
For one experiment, the system named is rat osteocalcin promoter. In words: OCN (osteocalcin) Promoter Assay. The settings on record: RG-15 (ROS17/2.8) cells, luciferase reporter, 48 h treatment. The method, then:
The OCN (osteocalcin) Promoter Assay
The OCN Promoter Assay is an indicator and marker for osteoporosis. Desired assay results are EC50 less than or equal to 325 nM. Preferred assay results are less than 50 nM.
The activation of osteocalcin by VDR ligands is evaluated in a rat osteoblast-like cell line RG-15 (ROS17/2.8) stably expressing rat osteocalcin promoter fused with luciferase reporter gene. The stable cell lines are established as reported before (Activation of Osteocalcin Transcription involves interaction of protein kinase A- and Protein kinase C-dependent pathways. Boguslawski, G., Hale, L. V., Yu, X.-P., Miles, R. R., Onyia, J. E., Santerre R. F., Chandrasekhar, S. J. Biol. Chem. 275, 999-1006, 2000). Confluent RG-15 cells maintained in DMEM/F-12 medium (3:1) containing 5% FBS, 300 μg/ml G418 and at 37° C. under 5% CO2/95% air atmosphere are trypsinized (0.25% trypsin) and plated into white opaque 96-well cell culture plates (25000 cells/well). After 24 h, cells (in DMEM/F-12 medium+2% FBS) are treated with various concentrations of compounds, dissolved in DMSO. The final DMSO concentration remains at 0.01% (v/v). After 48 h treatment, the medium is removed, cells are lysed with 50 μl of lysis buffer (From Luciferase reporter assay system, Roche Diagnostics, Indianapolis, Ind.) and then assayed for luciferase activity using the Luciferase Reporter Gene Assay kit from Boehringer Mannheim as per manufacturer's specifications.
A general note: Reporter assays use an easily measured gene product as a stand-in for the process of interest.

In a further experiment the target is T1, RXR-VDR heterodimer (Homo sapiens, UniProt P11473).
T1 construct: add the Gal-4-RXR-DEF and VP16-VDR-LBD; expressed in transfected cells; host or cells: SaOS-2 cells
T1 sequence (P11473 127-423 limits assumed): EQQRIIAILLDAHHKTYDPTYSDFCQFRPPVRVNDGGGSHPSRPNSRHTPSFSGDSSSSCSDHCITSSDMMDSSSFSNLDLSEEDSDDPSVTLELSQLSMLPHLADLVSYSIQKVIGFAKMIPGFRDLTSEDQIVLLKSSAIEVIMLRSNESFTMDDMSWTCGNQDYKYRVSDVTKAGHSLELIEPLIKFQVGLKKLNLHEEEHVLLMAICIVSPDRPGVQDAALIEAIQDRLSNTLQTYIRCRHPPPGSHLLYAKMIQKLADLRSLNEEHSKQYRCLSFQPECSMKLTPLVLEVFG
T1 sequence (P19793 201-462 partner limits assumed): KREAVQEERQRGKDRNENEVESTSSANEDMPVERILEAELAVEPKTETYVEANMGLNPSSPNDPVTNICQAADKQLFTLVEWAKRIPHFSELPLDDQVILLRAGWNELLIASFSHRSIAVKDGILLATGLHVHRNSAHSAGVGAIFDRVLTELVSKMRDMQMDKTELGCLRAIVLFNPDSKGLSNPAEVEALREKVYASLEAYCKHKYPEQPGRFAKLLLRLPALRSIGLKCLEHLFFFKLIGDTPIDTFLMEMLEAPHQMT
In words: RXR-VDR heterodimerization (SaOS-2 cells) test. The settings on record: Gal-4-RXR-DEF and VP16-VDR-LBD, luciferase reporter. The protocol:
1. The RXR-VDR heterodimerAssay:
This assay provides the VDR activity of a test compound. It is desirable to have low EC50 values for a compound in this assay. […] Desired assay results are EC50 values less than or equal to 600 nM. Preferred assay results are less than 250 nM, and most preferably less than 150 nM.
(1) Materials and Method for RXR-VDR Heterodimerization Assay Transfection Method: Reagents: FuGENE 6 Transfection Reagent (Roche Cat # 1 814 443); Growth Media: D-MEM High Glucose (Gibco BRL Cat # 11054-020), 10% heat inactivated FBS (Gibco BRL Cat # 10092-147), 1% antibiotic-antimycotic (Ab-Am); (Gibco BRL Cat # 15240-062). Cells: Grow SaOS-2 cells in T-150 cm^2 culture flasks in growth media keeping the density at 5-6×10^5 cells/ml. Passage cells 1:3 twice a week. Add Trypsin EDTA (Gibco BRL Cat # 25300-020) and incubate. Resuspend cells in plating media and transfer into growth media. Wash Media: HBSS Low Glucose Without Phenol Red (Gibco BRL Cat # 14175-095), 1% Ab-Am. Plating Media: D-MEM Low Glucose Without Phenol Red (Gibco BRL Cat # 11054-020), 1% Ab-Am; D-MEM; 10% Stripped FBS (Hyclone Cat# SH30068.03 Lot # AHM9371). Transfection/Treatment Media: D-MEM Low Glucose Without Phenol Red only; T-150 cm^2 culture flask: Use Corning Coastar T-150 cm^2 culture flask (Cat #430825) to grow the cells. Luciferase Assay Reagent: Use Steady-Glo Luciferase Reagent from Promega (Cat # E2550) Consists of: E2533 Assay Substrate, lypholized product and E2543 Assay Buffer. Thaw at room temperature and store. Cell Harvesting/Count: Aspirate media from culture flask, rinse cells with HBSS and aspirate. Add trypsin and incubate. When cells appear detached, resuspend cells in growth media. Transfer into a new flask with fresh growth media for passaging the cells. Plate 96 well plates and two extra plates. Mix the cell suspension using pipette. To count the cells using a Hematocytometer. Plate seeding: Use plating media 10% Stripped FBS in D-MEM Low Glucose, without Phenol Red, 1% Ab-Am. Plate 14 plates @ 165 μl/well. In sterile flask add cell suspension to plating media and mix. Add cells/well. Place the cells in the incubator. Cells should be about 75% confluent prior to transfection. DAY 2: Transfection: Step 1, DNA and Media: Add plain DMEM media to tubes for mixing the DNA; add the Reporter gene pFR-LUC; and add the Gal-4-RXR-DEF and VP16-VDR-LBD. Step 2, FuGENE and Media: Prepare plain DMEM media in a tubes for mixing FuGENE, add FuGENE 6 Transfection Reagent, and incubate. Step 3, FuGENE, DNA and Media Complex: Add FuGENE Media complex from step 2 to DNA Media complex from step 1 and incubate. Step 4, FuGENE, DNA and Media Complex to 96 well plate: Add FuGENE-DNA-Media complex from step 3 to each plate. Incubate. Day 3: Dosing: Treatment preparation. Allow for transfection time. Make a stock solution of the compounds in DMSO and vortex until all the compounds have been dissolved. Further dilute in D-MEM (Low Glucose—without Phenol Red) Add compounds in quadruplicate to give desired final volume then incubate. Day 4: Luciferase Assay: Read the plates after drug treatment. Remove part of media from all the wells and leave remainder. Add Steady-Glo Luciferase Reagent mixture/wells and incubate. Count each well using a Luminescence counter, Top Count NXT by Packard preferably set a delay between plates to reduce the background.

Experiment [1] relates to KERtr cells (Human skin keratinocyte). In words: Keratinocyte Proliferation Assay. To be noted: BrdU incorporation, 72 h, read-out: Kera. Prolif. IC50. The method, then: The Keratinocyte Proliferation Assay
This Assay is indicative for the treatment of psoriasis. An acceptable test result is IC50 value of less than or equal to 300 nM. Preferred assay results are IC50 values of less than 100 nM.
KERtr cells (Human skin keratinocyte) are transformed with a retrovirus vector, obtained from ATCC, then are plated in 96-well flat-bottomed plates (3000 cells/well) in 100 μl keratinocyte serum free medium supplemented with bovine pituitary extract in the absence of EGF (Life Technologies, Rockville, Md.) and are incubated at 37° C. for two days. The cells are treated with various concentrations of VDR ligands (ten-fold serial dilution from 10,000 nM to 0.1 nM in triplicate), dissolved in 100 μl keratinocyte serum free medium supplemented with bovine pituitary extract in the absence of EGF and are incubated at 37° C. for 72 h. BrdU (5-bromo-2′-deoxyuridine) incorporation is analyzed as a measure of DNA replication (Cell proliferation ELISA kit, Roche Diagnostics, Indianapolis, Ind.) and absorbance is measured at 405 nm. Potency values (IC50) values were determined as the concentration (nM) of compound that elicited a half-maximal response.
For orientation: Incorporation of labelled thymidine or its analogues reports DNA synthesis.

By EC50 is commonly meant the concentration at which the effect is half-maximal. A word on the IC50: it is the point on the concentration scale where inhibition reaches its midpoint.

Consider `CCC(CC)(c1ccc(OCC(=O)C(C)(C)C)c(C)c1)c1nc2cc(C(=O)O)ccc2o1` [Ex. 5, 2-{1-[4-(3,3-Dimethyl-2-oxo-butoxy)-3-methyl-phenyl]-1-ethyl-propyl}-benzooxazole-5-carboxylic acid], for which the 50% effective concentration (EC50) in the experiment on rat osteocalcin promoter was 8 nM; at RXR-VDR heterodimer it was 37 nM. In addition, the half-maximal inhibitory concentration (IC50) in experiment [1] is > 1000 nM.

As for `CCC(CC)(c1ccc(OCC(O)C(C)(C)C)c(C)c1)c1nc2cc(C(=O)O)ccc2o1` (centres unmarked) [Ex. 6, 2-{1-Ethyl-1-[4-(2-hydroxy-3,3-dimethyl-butoxy)-3-methyl-phenyl]-propyl}-benzooxazole-5-carboxylic acid], on RXR-VDR heterodimer, the EC50 was 5 nM. In addition, in experiment [1], the IC50 amounted to 36 nM.

On RXR-VDR heterodimer, `CCC(CC)(c1ccc(OCC(=O)C(C)(C)C)c(C)c1)c1nc2cc(C(N)=O)ccc2o1` [Ex 7, 2-{1-[4-(3,3-Dimethyl-2-oxo-butoxy)-3-methyl-phenyl]-1-ethyl-propyl}-benzooxazole-5-carboxylic acid amide] showed an EC50 of 177 nM. Further, the IC50 in experiment [1] is > 1000 nM.

Consider `CCC(CC)(c1ccc(OCC(=O)C(C)(C)C)c(C)c1)c1nc2ccc(C(=O)O)cc2o1` [Ex. 1, 2-{1-[4-(3,3-dimethyl-2-oxo-butoxy)-3-methyl-phenyl]-1-ethyl-propyl}-benzooxazole-6-carboxylic acid], for which the EC50 amounted to 376 nM with rat osteocalcin promoter and 1120 nM on RXR-VDR heterodimer.

As to `CCC(CC)(c1ccc(OCC(=O)C(C)(C)C)c(C)c1)c1nc2ccc(C(=O)N(C)C)cc2o1` [Ex. 3, 2-{1-[4-(3,3-Dimethyl-2-oxo-butoxy)-3-methyl-phenyl]-1-ethyl-propyl}-benzooxazole-6-carboxylic acid dimethylamide], the EC50 turned out to be 1640 nM with rat osteocalcin promoter and 701 nM at RXR-VDR heterodimer.

As for `CCC(CC)(c1ccc(OCC(=O)C(C)(C)C)c(C)c1)c1nc2cc(C(=O)NCC(=O)O)ccc2o1` [Ex 9, [(2-{1-[4-(3,3-Dimethyl-2-oxo-butoxy)-3-methyl-phenyl]-1-ethyl-propyl}-benzooxazole-5-carbonyl)-amino]-acetic acid], the EC50 at RXR-VDR heterodimer came to 150 nM. The IC50 in experiment [1] was > 1000 nM.

Turning to `CCC(CC)(c1ccc(OCC(=O)C(C)(C)C)c(C)c1)c1nc2ccc(C(=O)NCC(=O)O)cc2o1` [Ex. 4, [(2-{1-[4-(3,3-dimethyl-2-oxo-butoxy)-3-methyl-phenyl]-1-ethyl-propyl}-benzooxazole-6-carbonyl)-amino]-acetic acid], the concentration for a half-maximal effect (EC50) in the experiment on rat osteocalcin promoter was found to be 1170 nM; on RXR-VDR heterodimer it was 700 nM.

Consider `CCC(CC)(c1ccc(OCC(=O)C(C)(C)C)c(C)c1)c1nc2ccc(C(N)=O)cc2o1` [Ex. 2, 2-{1-[4-(3,3-Dimethyl-2-oxo-butoxy)-3-methyl-phenyl]-1-ethyl-propyl}-benzooxazole-6-carboxylic acid amide], for which the results for the half-maximal effective concentration (EC50) in the experiment with rat osteocalcin promoter and on RXR-VDR heterodimer were 289 nM and 73 nM, respectively. In addition, the IC50 in experiment [1] is > 1000 nM.

`CCC(CC)(c1ccc(OCC(=O)C(C)(C)C)c(C)c1)c1nc2cc(C(=O)N(C)C)ccc2o1` [Ex 8, 2-{1-[4-(3,3-Dimethyl-2-oxo-butoxy)-3-methyl-phenyl]-1-ethyl-propyl}-benzooxazole-5-carboxylic acid dimethylamide]: a half-maximal effect on RXR-VDR heterodimer (EC50) was put at 117 nM. For the same compound, the IC50 in experiment [1] is > 1000 nM.
